Patent US20260262643A1, “HERBICIDAL BENZOXAZINES” (FMC CORPORATION, priority 2022, published 2026)

Key:
ragweed [1] = assay: Test C preemergence; format: in vivo, Ambrosia artemisiifolia
Summary of the method: (§1)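 Visual injury score, 0–100 (100 = complete control), taken 10 days after treatment relative to untreated controls. Pre: directed spray onto soil over sown seeds. Post: foliar spray at one- to two-leaf stage, 2–10 cm. Solvent/surfactant formulation; loam–sand soil; greenhouse.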

ragweed [2] = assay: Test C postemergence; format: in vivo, Ambrosia artemisiifolia; conditions: 10 days, 0 to 100 scale (0 no effect, 100 complete control)
Summary of the method: as §1

kochia [3] = assay: Test C postemergence; format: in vivo, Bassia scoparia; conditions: 10 days, 0 to 100 scale (0 no effect, 100 complete control)
Summary of the method: as §1

barnyardgrass [4] = assay: Test C postemergence; format: in vivo, Echinochloa crusgalli; conditions: 10 days, 0 to 100 scale (0 no effect, 100 complete control)
Summary of the method: as §1

oat, wild [5] = assay: Test C preemergence; format: in vivo, Avena fatua
Summary of the method: as §1

corn [6] = assay: Test C postemergence; format: in vivo, Zea mays; conditions: 10 days, 0 to 100 scale (0 no effect, 100 complete control)
Summary of the method: as §1

ryegrass, Italian [7] = assay: Test C postemergence; format: in vivo, Lolium multiflorum; conditions: 10 days, 0 to 100 scale (0 no effect, 100 complete control)
Summary of the method: as §1

barnyardgrass [8] = assay: Test C preemergence; format: in vivo, Echinochloa crusgalli
Summary of the method: as §1

green foxtail [9] = assay: Test C postemergence; format: in vivo, Setaria viridis; conditions: 10 days, 0 to 100 scale (0 no effect, 100 complete control)
Summary of the method: as §1

green foxtail [10] = assay: Test C preemergence; format: in vivo, Setaria viridis
Summary of the method: as §1

oat, wild [11] = assay: Test C postemergence; format: in vivo, Avena fatua; conditions: 10 days, 0 to 100 scale (0 no effect, 100 complete control)
Summary of the method: as §1

blackgrass [12] = assay: Test C preemergence; format: in vivo, Alopecurus myosuroides
Summary of the method: as §1

wheat [13] = assay: Test C postemergence; format: in vivo, Triticum aestivum; conditions: 10 days, 0 to 100 scale (0 no effect, 100 complete control)
Summary of the method: as §1

rice = assay: Test D flooded paddy test; format: in vivo, Oryza sativa; conditions: 250 g ai/ha, applied to paddy water, visual rating after 13 to 14 days, scale 0 to 100 (0 no effect, 100 complete control)
Summary of the method: (§2)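 Compounds go straight into paddy water over 2-leaf plants in pots flooded to 3 cm. Greenhouse holding lasts 13 to 14 days. Injury is scored by eye against controls from 0 (none) to 100 (complete control).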

pigweed, palmer [14] = assay: Test C preemergence; format: in vivo, Amaranthus palmeri
Summary of the method: as §1

soybean [15] = assay: Test C preemergence; format: in vivo, Glycine max
Summary of the method: as §1

wheat [16] = assay: Test C preemergence; format: in vivo, Triticum aestivum
Summary of the method: as §1

sedge, umbrella = assay: Test D flooded paddy test; format: in vivo, Cyperus difformis; conditions: 250 g ai/ha, applied to paddy water, visual rating after 13 to 14 days, scale 0 to 100 (0 no effect, 100 complete control)
Summary of the method: as §2

galium = assay: Test C postemergence; format: in vivo, Galium aparine; conditions: 10 days, 0 to 100 scale (0 no effect, 100 complete control)
Summary of the method: as §1

horseweed = assay: Test C postemergence; format: in vivo, Erigeron canadensis; conditions: 10 days, 0 to 100 scale (0 no effect, 100 complete control)
Summary of the method: as §1

blackgrass [17] = assay: Test C postemergence; format: in vivo, Alopecurus myosuroides; conditions: 10 days, 0 to 100 scale (0 no effect, 100 complete control)
Summary of the method: as §1

kochia [18] = assay: Test C preemergence; format: in vivo, Bassia scoparia
Summary of the method: as §1

soybean [19] = assay: Test C postemergence; format: in vivo, Glycine max; conditions: 10 days, 0 to 100 scale (0 no effect, 100 complete control)
Summary of the method: as §1

pigweed, palmer [20] = assay: Test C postemergence; format: in vivo, Amaranthus palmeri; conditions: 10 days, 0 to 100 scale (0 no effect, 100 complete control)
Summary of the method: as §1

corn [21] = assay: Test C preemergence; format: in vivo, Zea mays
Summary of the method: as §1

ducksalad = assay: Test D flooded paddy test; format: in vivo, Heteranthera limosa; conditions: 250 g ai/ha, applied to paddy water, visual rating after 13 to 14 days, scale 0 to 100 (0 no effect, 100 complete control)
Summary of the method: as §2

barnyardgrass [22] = assay: Test D flooded paddy test; format: in vivo, Echinochloa crus-galli; conditions: 250 g ai/ha, applied to paddy water, visual rating after 13 to 14 days, scale 0 to 100 (0 no effect, 100 complete control)
Summary of the method: as §2

ryegrass, Italian [23] = assay: Test C preemergence; format: in vivo, Lolium multiflorum
Summary of the method: as §1

[24] = 500 g ai/ha, preemergence, 0 to 100 scale (0 no effect, 100 complete control)
[25] = Preemergence, 125 g ai/ha, 0 to 100 scale, 0 no effect, 100 complete control

CC(C)(C)c1ncn(-c2cccc(C(=O)N3CC(C(F)(F)F)Oc4c(Cl)cccc43)c2)n1 (stereo not shown) [Compound 353]
40: Plant response rating, Ryegrass, Italian (ryegrass, Italian [7]; 500 g ai/ha, postemergence) | Plant response rating, Foxtail, Green (green foxtail [9]; 500 g ai/ha, postemergence) | Soybean plant response rating (soybean [15]; [24])
90: Plant response rating, Foxtail, Green (green foxtail [10]; [25]) | Plant response rating, Pigweed, Palmer (pigweed, palmer [14]; [25]) | Plant response rating, Galium (galium; 500 g ai/ha, postemergence) | Plant response rating, Pigweed, Palmer (pigweed, palmer [20]; Postemergence, 125 g ai/ha) | Ryegrass, Italian plant response rating (ryegrass, Italian [23]; [24])
10: Plant response rating, Barnyardgrass (barnyardgrass [4]; Postemergence, 125 g ai/ha) | Plant response rating, Corn (corn [6]; 500 g ai/ha, postemergence) | Plant response rating, Corn (corn [6]; Postemergence, 125 g ai/ha) | Plant response rating, Wheat (wheat [16]; [25]) | Corn plant response rating (corn [21]; [24]) | Plant response rating, Corn (corn [21]; [25])
60: Plant response rating, Ragweed (ragweed [2]; 500 g ai/ha, postemergence) | Plant response rating, Kochia (kochia [3]; Postemergence, 125 g ai/ha)
50: Plant response rating, Ragweed (ragweed [2]; Postemergence, 125 g ai/ha) | Blackgrass plant response rating (blackgrass [12]; [24])
70: Plant response rating, Kochia (kochia [3]; 500 g ai/ha, postemergence) | Barnyardgrass plant response rating (barnyardgrass [8]; [24]) | Plant response rating, Galium (galium; Postemergence, 125 g ai/ha) | Kochia plant response rating (kochia [18]; [24])
100: Foxtail, Green plant response rating (green foxtail [10]; [24]) | Pigweed, Palmer plant response rating (pigweed, palmer [14]; [24]) | Plant response rating, Pigweed, Palmer (pigweed, palmer [20]; 500 g ai/ha, postemergence)
0: Ragweed plant response rating (ragweed [1]; [24]) | Plant response rating, Ragweed (ragweed [1]; [25]) | Plant response rating, Oat, Wild (oat, wild [11]; 500 g ai/ha, postemergence) | Plant response rating, Oat, Wild (oat, wild [11]; Postemergence, 125 g ai/ha) | Plant response rating, Blackgrass (blackgrass [12]; [25]) | Plant response rating, Rice (Flood) (rice) | Plant response rating, Sedge, Umbrella (Flood) (sedge, umbrella) | Plant response rating, Horseweed (horseweed; 500 g ai/ha, postemergence) | Plant response rating, Blackgrass (blackgrass [17]; Postemergence, 125 g ai/ha) | Plant response rating, Kochia (kochia [18]; [25]) | Plant response rating, Ducksalad (Flood) (ducksalad) | Plant response rating, Barnyardgrass (Flood) (barnyardgrass [22])
20: Plant response rating, Ryegrass, Italian (ryegrass, Italian [7]; Postemergence, 125 g ai/ha) | Plant response rating, Barnyardgrass (barnyardgrass [8]; [25]) | Plant response rating, Foxtail, Green (green foxtail [9]; Postemergence, 125 g ai/ha) | Plant response rating, Wheat (wheat [13]; 500 g ai/ha, postemergence) | Plant response rating, Wheat (wheat [13]; Postemergence, 125 g ai/ha) | Plant response rating, Soybean (soybean [15]; [25]) | Plant response rating, Horseweed (horseweed; Postemergence, 125 g ai/ha)
30: Plant response rating, Barnyardgrass (barnyardgrass [4]; 500 g ai/ha, postemergence) | Plant response rating, Oat, Wild (oat, wild [5]; [25]) | Wheat plant response rating (wheat [16]; [24]) | Plant response rating, Blackgrass (blackgrass [17]; 500 g ai/ha, postemergence)
80: Oat, Wild plant response rating (oat, wild [5]; [24]) | Plant response rating, Soybean (soybean [19]; 500 g ai/ha, postemergence) | Plant response rating, Soybean (soybean [19]; Postemergence, 125 g ai/ha) | Plant response rating, Ryegrass, Italian (ryegrass, Italian [23]; [25])
